# Measured values reported in patent US20260199371A1, “COORDINATION COMPOUND, COMPOSITIONS, AND USES THEREOF FOR TREATING CANCERS” (HUEIYUAN BIOTECH LLC, priority 2023, published 2026).
# Assays:
# [1] = test system: LoVo-OXAR cells; details: 2000 μg/ml, 24 hours, versus control
# Experimental: (§1) To evaluate whether the compound (II) induces apoptosis of cancer cells, terminal deoxynucleotidyl transferase dUTP nick-end labeling (TUNEL) assay was employed to detect apoptosis. In brief, LoVo-parental cells and LoVo-OXAR cells were treated with 500 μg/ml and 2000 μg/ml of the compound (II), respectively, for 24 hours before they were subject to TUNEL assay (In Situ Cell Death Detection Kit; Roche Applied Science, Indianapolis, IN, USA) and nuclear counterstain with 0.1 mg/ml 4′,6-diamidino-2-phenylindole (DAPI, Sigma-Aldrich, St. Louis, MO, USA). Lovo-parental or LoVo-OXAR cells treated with 0 μg/ml of the compound (II) were set as control groups. TUNEL-positive cells were examined by Olympus CKX53 microscope (Olympus, Shinjuku-ku, Tokyo, Japan).
# [2] = test system: LoVo-parental cells; details: 500 μg/ml, 24 hours, versus control
# Experimental: as §1
# [3] = test system: EMT markers in LoVo-OXAR cells; details: western blot, 24 hours
# Description: (§2) Vimentin and E-cadherin are molecular markers linked to tumor progression through their roles in EMT, which is a pathological process contributing to migration and invasion of cancer cells and tumor progression. Vimentin is a key component of intermediate filaments, which helps maintain cellular integrity and resistance to stress. E-cadherin plays a role in maintaining epithelial phenotypes by mediating contact inhibition when cells proliferate and reach confluence. To further investigate the influence of the compound (II) on EMT marker expression, western blotting, immunofluorescence detection, and quantitative real-time reverse transcription polymerase chain reaction (qRT-PCR) were performed in LoVo-parental and LoVo-OXAR cells treated with various doses of the compound (II) for 24 hours.
# (§3) The cells after the indicated treatments were harvested and subject to western blot analysis using primary antibodies against vimentin, E-cadherin, and GAPDH (San-ta Cruz Biotechnology Inc. Santa Cruz, California, USA). GAPDH was used as an internal control.
# [4] = test system: EMT markers in LoVo-parental cells; details: western blot, 24 hours
# Description: as §2, §3
# [5] = test system: EMT markers in LoVo-OXAR cells; details: immunofluorescence
# Description: as §2
# (§4) The cells were then permeabilized with 0.1% Triton X-100 in 0.1% sodium citrate and the well was blocked with blocking buffer (2% bovine serum albumin), followed by immunofluorescence staining. The cells were incubated with primary antibodies against vimentin and E-cadherin for 24 hours at 4° C. and subsequently incubated with fluorescent secondary antibodies for 1 hour at 25° C. before DAPI staining and observation using fluorescence microscopy.
# [6] = test system: EMT markers in LoVo-parental cells; details: immunofluorescence
# Description: as §2, §4
# [7] = test system: EMT markers in LoVo-OXAR cells; details: qRT-PCR
# Description: as §2
# (§5) Total RNA from the cells after the indicated treatments was extracted using the GeneJET RNA purification kit (ThermoFisher Scientific, Lithuania) and reverse transcribed to cDNA using a GScript First-Strand Synthesis Kit, a cDNA synthesis kit, and Oligo-dT primers according to the manufacturer's instructions. RT-PCR was performed using ORA^T SEE qPCR Green ROX L Mix, 2× (HighQu, USA). Primers for EMT markers (Vimentin, E-cadherin, TJP1, and FN1) and GAPDH (as endogenous control) were synthesized by Bio-ProTech based the sequences in TABLE 1. The 2^−ΔΔCt method was used to calculate a relative fold change in gene expression. […] TJP1 is a marker of epithelial cells that disappears during EMT and cancer development. In contrast, FN1 is involved in the occurrence and development of various tumors and acts as a critical gene in gastric cancer.
# [8] = test system: EMT markers in LoVo-parental cells; details: qRT-PCR
# Description: as §2, §5
# [9] = test system: LoVo-OXAR cells; details: high dose 100 mg/kg/day orally, compared to low dose 10 mg/kg/day
# Description: (§6) Six-week-old male NU/NU mice were purchased from Bio LASCO Taiwan Co., Ltd (Taipei, Taiwan) and randomly assigned into six groups (Groups 1 to 6), each containing three mice. […] All mice were sacrificed on day 30, and the mouse lung, kidney, spleen, and heart were examined for metastatic cancer cells.
# [10] = test system: LoVo-parental cells; details: high dose 100 mg/kg/day orally, compared to low dose 10 mg/kg/day
# Description: as §6
# [11] = test system: HA22T-parental cells; details: 24 hours
# [12] = test system: HA22T-HDACiR cells; details: 0-1250 μg/ml, 24 hours
# [13] = test system: 143B cells; assay: MTT assay, viability of 143B cells; format: cell-based, human; details: 24 hours
# Experimental: Human osteosarcoma 143B cells (commercially available from ATCC under the number CRL-8303) were cultured in DMEM supplemented with 10% FBS and 1% sodium pyruvate.
# [14] = test system: T24 cells; details: 0-1600 μg/ml, 24 hours
# Experimental: Human bladder carcinoma T24 cells (commercially available from ATCC under the number HTB-4) were cultured in RPMI 1640 medium supplemented with 10% FBS.
# [15] = test system: HeLa cells; details: 0.5-1000 μg/ml, 48 hours
# Experimental: Human cervical carcinoma HeLa cells (commercially available from ATCC under the number CCL-2) were cultured in DMEM supplemented with 10% FBS.
# [16] = test system: LoVo-parental cells; details: 24 hours
# [17] = test system: PANC-1 cells tumor xenograft; assay: Subcutaneous PANC-1 tumor xenograft in C.B17/SCID mice; details: for Change in body weight / TGI (%): oral; for TGI (%): 14 days, read 14 days after the treatment period
# [18] = Group 5: 150 mg/kg, twice a day
smiles,measurement,setting,value
CC(=O)[O-].CC(=O)[O-].CC(=O)[O-].CC(=O)[O-].CC(=O)[O-].CC(=O)[O-].O.O.O.O.O=[N+]([O-])[O-].[Cr+3].[Fe+3].[Fe+3].[OH-].[OH-] [compound (II)],apoptotic cell death (TUNEL) in LoVo-OXAR cells,[1],significant increase in apoptotic cell death
same,apoptotic cell death (TUNEL) in LoVo-parental cells,[2],significant increase in apoptotic cell death
same,protein expression of E-cadherin,[3],increased
same,protein expression of vimentin,[3],significantly reduced
same,protein expression of E-cadherin,[4],increased
same,protein expression of vimentin,[4],significantly reduced
same,expression of E-cadherin,[5],significantly increased
same,vimentin expression,[5],significantly suppressed
same,expression of E-cadherin,[6],significantly increased
same,vimentin expression,[6],significantly suppressed
same,E-cadherin mRNA expression,[7],increased
same,FN1 mRNA expression,[7],decreased
same,TJP1 mRNA expression,[7],increased
same,vimentin mRNA expression,[7],decreased
same,E-cadherin mRNA expression,[8],increased
same,FN1 mRNA expression,[8],decreased
same,TJP1 mRNA expression,[8],increased
same,vimentin mRNA expression,[8],decreased
same,"metastasis to the lung, kidney, spleen, and heart",[9],effectively inhibited the metastasis
same,"metastasis to the lung, kidney, spleen, and heart",[10],effectively inhibited the metastasis
same,viability of HA22T-parental cells,[11]; 0-1250 μg/ml,reduced the viability of both liver cancer cells in a dose-dependent manner
same,IC50 against HA22T-parental cells,[11]; MTT,approximately 1000 μg/ml
same,viability of HA22T-HDACiR cells,[12],reduced the viability of both liver cancer cells in a dose-dependent manner
same,viability of 143B cells,[13]; 0-4000 μg/ml,reduced the viability of the osteosarcoma cells in a dose-dependent manner
same,IC50 against 143B cells,[13]; MTT,approximately 500 μg/ml
same,viability of T24 cells,[14],reduced the viability of the bladder carcinoma cells in a dose-dependent manner
same,viability of HeLa cells,[15],reduced the viability of the metastatic Hela cells in a dose-dependent manner
same,viability of LoVo-parental cells,[16]; 0-4000 μg/ml,reduced the viability of both colorectal cancer cells in a dose-dependent manner
same,IC50 against LoVo-parental cells,[16]; MTT,about 500 μg/ml
same,Change in body weight,"[17]; Group 3: 100 mg/kg, once a day",107 ± 5%
same,TGI (%),"[17]; Group 3: 100 mg/kg, once a day",51 ± 8%
same,Change in body weight,"[17]; Group 4: 150 mg/kg, once a day",102 ± 3%
same,TGI (%),"[17]; Group 4: 150 mg/kg, once a day",51 ± 6%
same,Change in body weight,[17]; [18],103 ± 4%
same,TGI (%),[17]; [18],88 ± 6%
same,toxicity to mice at a therapeutically effective dose,[17]; Groups 3-5,not toxic to mice
same,body weight of the mice,"[17]; Groups 3-5, FIG. 20B",remained constant
